According to patent US8044204B2, “8-methoxy-9H-isothiazolo[5,4-b]quinoline-3,4-diones and related compounds as anti-infective agents” (Achillion Pharmaceuticals, Inc., priority 2005, dated 2011):

What was measured:
Assay type in all cases: cell-based
[1] = system: MRSA strain ATCC 700699; assay: Minimum Inhibitory Concentration (MIC) assay, Methicillin Resistant S. Aureus; details: Staphylococcus aureus; broth microdilution; read-out: MIC against Methicillin Resistant S. Aureus
Source text: It has been unexpectedly discovered that substitution of compounds of Formula I and Formula II with a methoxy substituent at the R8 position increases the anti-microbial activity of the compound against Methicillin resistant Staphylococcus Aureus bacteria while at the same time decreasing the cellular toxicity of the compound. The simultaneous increase in compound activity and decrease in compound toxicity provides a greater therapeutic range for compounds of Formula I and Formula II in which R8 is methoxy; i.e. the range of doses of such compounds that will produce beneficial effects without harmful side effects is increased. […] Therapeutic range is determined using a standard assay of cytotoxicity such as the Alamar blue assay provided in Example 10.
(§1) The antimicrobial activity of the compounds of the invention may be evaluated by a number of methods, including the following visual minimum inhibitory concentration (MIC) assay. This assay determines the minimum concentration of compound required to inhibit growth of a bacterial strain.
(§2) Minimum Inhibitory Concentration (MIC) Assay
(§3) Whole-cell antibacterial activity is determined by broth microdilution using conditions recommended by the NCCLS (see National Committee for Clinical Laboratory Standards. 2001. Performance standards for antimicrobial susceptibility testing: 11th informational supplement. Vol. 21, no. 1, M100-S11. National Committee for Clinical Laboratory Standards, Wayne, Pa.). Test compounds are dissolved in DMSO and diluted 1:50 in Mueller-Hinton II broth (Becton-Dickinson) to produce a 256 μg/ml stock solution. In a 96-well microtiter plate, the compound solution is serially two-fold diluted in Mueller-Hinton II broth. After the compounds are diluted, a 50 μl aliquot of the test organism (˜1×10^6 cfu/mL) is added to each well of the microtiter plate. The final test concentrations ranges from 0.125-128 μg/mL. Inoculated plates are incubated in ambient air at 37° C. for 18 to 24 hours. The organisms selected for testing included laboratory strains S. aureus ATCC 29213 and E. coli ATCC 25922 (strains purchased from American Type Culture Collection, Manassas, Va.), S. aureus FQR700699, and Paeruginosa 27853. The minimum inhibitory concentration (MIC) is determined as the lowest concentration of compound that inhibited visible growth of the test organism.

[2] = system: S. aureus ATCC 29213; assay: Minimum Inhibitory Concentration (MIC) assay, S. aureus; details: Staphylococcus aureus, ATCC29213; broth microdilution; read-out: MIC against S. Aureus
Experimental: as §1, §2, §3

[3] = system: E. coli ATCC 25922; assay: Minimum Inhibitory Concentration (MIC) assay, E. coli; details: Escherichia coli, ATCC25922; broth microdilution; read-out: MIC against E. coli
Experimental: as §1, §2, §3

Row | Compound | MIC [1] | MIC [2] | MIC [3]
1 | CC(=O)N1CCN(c2cc3c(cc2F)c(=O)c2c(=O)[nH]sc2n3C2CC2)CC1 [Compound 44, 7-(4-acetyl-piperazin-1-yl)-9-cyclo-propyl-6-fluoroiso-thiazolo[5,4-b]quinoline-3,4(2H,9H)-dione] | – | ≤ 1 µg/mL | ≤ 1 µg/mL
2 | O=c1[nH]sc2c1c(=O)c1cc(F)c(N3CCSCC3)cc1n2C1CC1 [Compound 28, 9-cyclopropyl-6-fluoro-7-thiomorpho-linoiso-thiazolo[5,4-b]quinoline-3,4(2H,9H)-dione] | – | ≤ 1 µg/mL | ≤ 1 µg/mL
3 | O=c1[nH]sc2c1c(=O)c1cc(F)c(N3CCC(O)C3)cc1n2C1CC1 (stereo not drawn) [Compound 18, 9-cyclopropyl-6-fluoro-7-(3-hydroxy-pyrrolidin-1-yl)isothia-zolo[5,4-b]quinoline-3,4(2H,9H)-dione] | – | ≤ 1 µg/mL | ≤ 1 µg/mL
4 | CC1CN(c2cc3c(cc2F)c(=O)c2c(=O)[nH]sc2n3C2CC2)CCN1 (stereo not drawn) [Compound 17, 9-cyclopropyl-6-fluoro-7-(3-methyl-piperazin-1-yl)isothia-zolo[5,4-b]quinoline-3,4(2H,9H)-dione] | – | ≤ 1 µg/mL | ≤ 1 µg/mL
5 | CCn1c2cc(N3CCC(N(C)C)C3)c(F)cc2c(=O)c2c(=O)[nH]sc21 (stereo not drawn) [Compound 34, 7-(3-(dimethyl-amino)pyrrolidin-1-yl)-9-ethyl-6-fluoroisothia-zolo[5,4-b]quinoline-3,4(2H,9H)-dione] | – | ≤ 1 µg/mL | ≤ 1 µg/mL
6 | O=c1[nH]sc2c1c(=O)c1cc(F)c(NCCN3CCOCC3)cc1n2C1CC1 [Compound 29, 9-cyclopropyl-6-fluoro-7-(2-morpholino-ethyl-amino)iso-thiazolo[5,4-b]quinoline-3,4(2H,9H)-dione] | – | ≤ 1 µg/mL | ≤ 1 µg/mL
7 | CCn1c2s[nH]c(=O)c2c(=O)c2cc(F)c(N3CC[C@@H](C(C)(C)N)C3)c(OC)c21 [Compound 59, (R)-7-(3-(2-aminopropan-2-yl)pyrrolidin-1-yl)-9-ethyl-6-fluoro-8-methoxyiso-thiazolo[5,4-b]quinoline-3,4(2H,9H)-dione] | ≤ 1 µg/mL | ≤ 1 µg/mL | –
8 | O=c1[nH]sc2c1c(=O)c1cc(F)c(N3CCC4(CC3)OCCO4)cc1n2C1CC1 [Compound 39] | – | ≤ 1 µg/mL | ≤ 1 µg/mL
9 | O=c1[nH]sc2c1c(=O)c1cc(F)c(N3CCN(CCN4CCCC4)CC3)cc1n2C1CC1 [Compound 30] | – | ≤ 1 µg/mL | ≤ 1 µg/mL
10 | CC(C)(C)OC(=O)N1CCN(c2cc3c(cc2F)c(=O)c2c(=O)[nH]sc2n3C2CC2)CC1 [Compound 26, tert-butyl 4-(9-cyclopropyl-6-fluoro-3,4-dioxo-2,3,4,9-tetrahydroiso-thiazolo[5,4-b]quinolin-7-yl)piperazine-1-carboxylate] | – | ≤ 1 µg/mL | ≤ 1 µg/mL
11 | CCn1c2cc(N3CCN(CCN(C)C)CC3)c(F)cc2c(=O)c2c(=O)[nH]sc21 [Compound 36, 7-(4-(2-(dimethyl-amino)ethyl)piperazin-1-yl)-9-ethyl-6-fluoroisothia-zolo[5,4-b]quinoline-3,4(2H,9H)-dione] | – | ≤ 1 µg/mL | ≤ 1 µg/mL
12 | COc1c(N2CCC(CN)C2)c(F)cc2c(=O)c3c(=O)[nH]sc3n(C3CC3)c12 (stereo not drawn) [Compound 66, 7-(3-(aminomethyl)-pyrrolidin-1-yl)-9-cyclopropyl-6-fluoro-8-methoxyiso-thiazolo[5,4-b]quinoline-3,4(2H,9H)-dione] | ≤ 1 µg/mL | ≤ 1 µg/mL | –
13 | CCn1c2cc(N3CCNCC3)c(F)cc2c(=O)c2c(=O)[nH]sc21 [Compound 31, 9-ethyl-6-fluoro-7-(piperazin-1-yl)isothia-zolo[5,4-b]quinoline-3,4(2H,9H)-dione] | – | ≤ 1 µg/mL | ≤ 1 µg/mL
14 | CN1CCN(c2cc3c(cc2F)c(=O)c2c(=O)[nH]sc2n3C2CC2)CC1 [Compound 21, 9-cyclopropyl-6-fluoro-7-(4-methyl-piperazin-1-yl)isothia-zolo[5,4-b]quinoline-3,4(2H,9H)-dione] | – | ≤ 1 µg/mL | ≤ 1 µg/mL
15 | O=c1[nH]sc2c1c(=O)c1cc(F)c(N3CCNCC3)cc1n2C1CC1 [Compound 20, 9-cyclopropyl-6-fluoro-7-(piperazin-1-yl)isothia-zolo[5,4-b]quinoline-3,4(2H,9H)-dione] | – | ≤ 1 µg/mL | ≤ 1 µg/mL

The remaining lines, values ahead:

Row | MIC [1] | MIC [2] | MIC [3] | Compound
16 | ≤ 1 µg/mL | ≤ 1 µg/mL | – | CC[C@@H](NC)[C@@H]1CCN(c2c(F)cc3c(=O)c4c(=O)[nH]sc4n(C4CC4)c3c2OC)C1 [Compound 92, 9-cyclopropyl-6-fluoro-8-methoxy-7-((R)-3-((R)-1-(methylamino)-propyl)pyrrolidin-1-yl)isothia-zolo[5,4-b]quinoline-3,4(2H,9H)-dione]
17 | ≤ 1 µg/mL | ≤ 1 µg/mL | – | CN[C@H](C)[C@@H]1CCN(c2c(F)cc3c(=O)c4c(=O)[nH]sc4n(C4CC4)c3c2OC)C1 [Compound 107, 9-cyclopropyl-6-fluoro-8-methoxy-7-((R)-3-((R)-1-(methyl-amino)ethyl)pyrrolidin-1-yl)isothia-zolo[5,4-b]quinoline-3,4(2H,9H)-dione]
18 | – | ≤ 1 µg/mL | ≤ 1 µg/mL | COc1c(N2C[C@H]3CCCN[C@H]3C2)ccc2c(=O)c3c(=O)[nH]sc3n(C3CC3)c12 [Compound 78, 9-cyclopropyl-8-methoxy-7-((4aR,7aR)octahydro-pyrrolo[3,4-b]pyridin-6-yl)isothia-zolo[5,4-b]quinoline-3,4(2H,9H)-dione]
19 | – | ≤ 1 µg/mL | ≤ 1 µg/mL | COc1c(N2CC[C@@H](C(C)N(C)C)C2)c(F)cc2c(=O)c3c(=O)[nH]sc3n(C3CC3)c12 (stereo partly drawn) [Compound 81, (R)-9-cyclo-propyl-7-(3-(1-(di-methylamino)ethyl)pyrrolidin-1-yl)-6-fluoro-8-methoxyiso-thiazolo[5,4-b]quinoline-3,4(2H,9H)-dione]
20 | – | ≤ 1 µg/mL | ≤ 1 µg/mL | COc1c(N2CC[C@@H](CNC3CC3)C2)ccc2c(=O)c3c(=O)[nH]sc3n(C3CC3)c12 [Compound 101, (S)-9-cyclo-propyl-7-(3-((cyclopropyl-amino)methyl)-pyrrolidin-1-yl)-8-methoxyiso-thiazolo[5,4-b]quinoline-3,4(2H,9H)-dione]
21 | ≤ 1 µg/mL | ≤ 1 µg/mL | – | CN[C@@H](C)[C@@H]1CCN(c2c(F)cc3c(=O)c4c(=O)[nH]sc4n(C4CC4)c3c2OC)C1 [Compound 108, 9-cyclopropyl-6-fluoro-8-methoxy-7-((R)-3-((S)-1-(methylamino)-ethyl)pyrrolidin-1-yl)isothia-zolo[5,4-b]quinoline-3,4(2H,9H)-dione]
22 | – | ≤ 1 µg/mL | ≤ 1 µg/mL | COc1c(N2CC(N)C2)c(F)cc2c(=O)c3c(=O)[nH]sc3n(C3CC3)c12 [Compound 105, 7-(3-amino-azetidin-1-yl)-9-cyclopropyl-6-fluoro-8-methoxyiso-thiazolo[5,4-b]quinoline-3,4(2H,9H)-dione]
23 | – | ≤ 1 µg/mL | ≤ 1 µg/mL | CNC(C)(C)[C@@H]1CCN(c2ccc3c(=O)c4c(=O)[nH]sc4n(C4CC4)c3c2OC)C1 [Compound 79, (R)-9-cyclo-propyl-8-methoxy-7-(3-(2-(methyl-amino)propan-2-yl)pyrrolidin-1-yl)isothia-zolo[5,4-b]quinoline-3,4(2H,9H)-dione]
24 | ≤ 1 µg/mL | ≤ 1 µg/mL | – | COc1c(N2CC[C@@H]([C@H](C)N)C2)ccc2c(=O)c3c(=O)[nH]sc3n(C3CC3)c12 [Compound 111, 7-((R)-3-((S)-1-aminoethyl)-pyrrolidin-1-yl)-9-cyclo-propyl-8-methoxyiso-thiazolo[5,4-b]quinoline-3,4(2H,9H)-dione]
25 | ≤ 1 µg/mL | ≤ 1 µg/mL | – | COc1c(N2CC[C@@H](C(C)NC(C)C)C2)c(F)cc2c(=O)c3c(=O)[nH]sc3n(C3CC3)c12 (stereo partly drawn) [Compound 112, (R)-9-cyclo-propyl-6-fluoro-7-(3-(1-(isopropyl-amino)ethyl)pyrrolidin-1-yl)-8-methoxyiso-thiazolo[5,4-b]quinoline-3,4(2H,9H)-dione]
26 | – | ≤ 1 µg/mL | ≤ 1 µg/mL | CCNC1CN(c2c(F)cc3c(=O)c4c(=O)[nH]sc4n(C4CC4)c3c2OC)C1 [Compound 106, 9-cyclopropyl-7-(3-(ethylamino)-azetidin-1-yl)-6-fluoro-8-methoxyiso-thiazolo[5,4-b]quinoline-3,4(2H,9H)-dione]
27 | – | ≤ 1 µg/mL | ≤ 1 µg/mL | COc1cc2c(=O)c3c(=O)[nH]sc3n(C3CC3)c2c(F)c1N1CC[C@@H](CN)C1 [Compound 85, (S)-7-(3-(aminomethyl)-pyrrolidin-1-yl)-9-cyclo-propyl-8-fluoro-6-methoxyiso-thiazolo[5,4-b]quinoline-3,4(2H,9H)-dione]
